Source: patent publication US20210008028A1, “COMPOSITIONS AND METHODS FOR TREATING DIARRHEAL DISEASES” (VANESSA RESEARCH, INC., priority 2018, published 2021)

The compounds below were run on CTx-induced fluid secretion in the mouse intestine (assay: Cholera-toxin induced closed-loop mouse diarrheal model, individual polyphenols and their combination). Settings: individual compound, CTx 1 μg per loop.
Assay type: in vivo
Description: Following identification, individual reagents of cyanidin, delphinidin, epicatechin gallate and epigallocatechin gallate were acquired from ChromaDex (Chromadex, Irvine, Calif., USA) and tested in the same cholera-toxin induced closed-loop mouse diarrheal model described above. We sought and resolved the IC^50 concentration of each individual component as relevant for the treatment of cholera-toxin induced intestinal secretion.
Mice (19-35 g) were fasted for 24-48 h, weighed and anesthetized with Avertin Sigma-Aldrich, St. Louise, Mo., USA) (250 mg/kg IP induction dose f.b. 2.6 mg IP every 30-45 minutes as needed for maintenance of anesthesia). Body temperature was maintained at 37-38° C. using a heating pad.
Abdomen was opened. Small, and part of the large intestine were identified. 2-4 cm loops were ligated in the proximal jejunum beginning immediately downstream of Treitz ligament. Loops were separated by 1-2 cm of intervening small intestine. After ligation, one loop was injected with 100 μl of PBS, second loop was injected with CTx solution (Cayman chemicals, 1 μg in 100 μl PBS and third loop was injected with CTx and polyphenol solution (Chromadex, Irvine, Calif., USA) in 100 μl of PBS. Injected loops were photographed and carefully placed back into the abdominal cavity and then abdomen was closed with two sutures. After 4 to 6-hour incubation, animal was euthanized and entire length of small intestine, cecum and ascending transverse colon were removed as a single prep. Loops were excised, trimmed of fat, measured and weighted. Mice were euthanized by cervical dislocation or an overdose injection of Avertin. All animal protocols were approved by the Laboratory Animal Ethical Committee of Vanessa Research Inc. The loop weight/length ratio was calculated.
Flavan-3-ols and gallotannins stock solutions (stock dilutions (stored at −20 C)) and working dilutions (PBS) were designated and prepared as follows:
F1A—Cyanidin chloride (Chromadex, ASB-00003955-005 Lot #00003955-041) 5 mg dissolved in 1 ml methanol (Sigma-Aldrich, Saint Louise, Mo., USA) to 5 mg/ml stock. Original concentration used in experiments 0.05 mg/ml. Serial dilutions from 1:10 to 1:100,000 with increments of 1:10 were prepared for experiments.
F1B—Delphinidin chloride (Chromadex, ASB-00004125-001 Lot #00004125-504) 1 mg dissolved in 143 ul methanol to 7 mg/ml stock. Original concentration used in experiments 0.07 mg/ml. Serial dilutions from 1:10 to 1:100,000 with increments of 1:10 were prepared for experiments.
F1C—Epicatechin gallate (Chromadex, ASB-00005135-005 Lot #00005135-523) 5 mg dissolved in 1 ml methanol to 5 mg/ml stock. Original concentration used in experiments […] (1:50 dilution of 5 mg/ml stock). Serial dilutions from 1:10 to 1:100,000 with increments of 1:10 were prepared for experiments.
F1D—Epigallocatechin gallate (Chromadex, ASB-00005150-005 Lot #00005150-008) 5 mg dissolved in 1 ml methanol to 5 mg/ml stock. Original concentration used in experiments […] (1:33.4 of 5 mg/ml stock). Serial dilutions from 1:10 to 1:100,000 with increments of 1:10 were prepared for experiments.
However, in order to confirm or exclude the idea of synergism between multiple polyphenols in exertion of the anti-secretory effect following induction of fluid secretion with CTx, we attempted a treatment with a combination of all 4 polyphenols in the concentrations as indicated in Table 1. The ratio of concentrations (mg/ml) of individual members (cyaniding:delphinidin:epicatechin gallate:epigallocatechin gallate) in the combination was derived from Table 1 as 500:70:1:150 (weight ratio) accordingly.
Data analysis was done as follows: The formula was used as adapted from Yamamoto K., 1979:
Mass accumulation=Tm−(Cm/CL)×TL
After determining fluid accumulation in treated and untreated samples, a percent reduction in mass was performed using the mass obtained from the previous formula
5. The certain variables were removed based on the Exclusion Criteria for Data: […]
`Oc1cc(O)c2cc(O)c(-c3ccc(O)c(O)c3)[o+]c2c1.[Cl-]` [F1A, Cyanidin chloride] was tested, and the “Concentration that did not have any effect on the CTx-induced fluid secretion” value was 5e-06 mg/mL.
For `Oc1cc(O)c2cc(O)c(-c3cc(O)c(O)c(O)c3)[o+]c2c1` [F1B, Delphinidin chloride], the “Concentration that did not have any effect on the CTx-induced fluid secretion” value was 7e-08 mg/mL.
In the case of `O=C(O[C@@H]1Cc2c(O)cc(O)cc2O[C@@H]1c1ccc(O)c(O)c1)c1cc(O)c(O)c(O)c1` [F1C, Epicatechin gallate], the “Concentration that did not have any effect on the CTx-induced fluid secretion” value is reported as 1e-08 mg/mL.
`O=C(O[C@@H]1Cc2c(O)cc(O)cc2O[C@@H]1c1cc(O)c(O)c(O)c1)c1cc(O)c(O)c(O)c1` [F1D, Epigallocatechin gallate] was tested, and the “Concentration that did not have any effect on the CTx-induced fluid secretion” value was 1e-06 mg/mL.

Same assay, conditions: individual polyphenols, dose-dependent
In the case of `Oc1cc(O)c2cc(O)c(-c3ccc(O)c(O)c3)[o+]c2c1.[Cl-]` [F1A, Cyanidin chloride], the “Effect on fluid accumulation elicited by CTx” value (from here on “Effect … by CTx”) is reported as “significantly reduced fluid accumulation”.
For `Oc1cc(O)c2cc(O)c(-c3cc(O)c(O)c(O)c3)[o+]c2c1` [F1B, Delphinidin chloride], the “Effect … by CTx” value was “significantly reduced fluid accumulation”.
For `O=C(O[C@@H]1Cc2c(O)cc(O)cc2O[C@@H]1c1ccc(O)c(O)c1)c1cc(O)c(O)c(O)c1` [F1C, Epicatechin gallate], the “Effect … by CTx” value was “significantly reduced fluid accumulation”.
`O=C(O[C@@H]1Cc2c(O)cc(O)cc2O[C@@H]1c1cc(O)c(O)c(O)c1)c1cc(O)c(O)c(O)c1` [F1D, Epigallocatechin gallate] was tested, and the “Effect … by CTx” value was “significantly reduced fluid accumulation”.
